Data as given in patent US7893299B2, “Interleukin-1 and tumor necrosis factor-αmodulators; syntheses of such modulators and methods of using such modulators” (Nereus Pharmaceuticals, Inc., priority 2005, dated 2011).

Legend:
[1] = tested on: NF-κB p65 subunit nuclear translocation; assay type: cell-based; conditions: LPS-stimulated RAW264.7; 5, 10 and 20 μM
Description: Cells were pretreated with NPI-1387 (compound 24 under scheme 4 above) at 5, 10 and 20 μM for 1 hr, and then stimulated with 50 ng/ml LPS for 30 min. Coverslips were transferred to clean plates, washed twice in Dulbecco's phosphate buffered saline (DPBS), fixed in 10% formaldehyde for 10 min, and permeabilized with 0.2% Triton X-100 for additional 10 min. Blocking medium (DPBS, 2% BSA, 0.1% Triton X-100) was added for 2 h, and removed by aspiration. Polyclonal goat anti-p65 antibody (Santa Cruz Biotechnology) was added at a 1:1000 dilution for 1 hr. The wells were washed 3 times with DPBS containing 0.1% Triton X-100, and […] of Alexa-488-conjugated anti-goat antibody (1:1000 dilution, Molecular Probes) were added for 30 min. Wells were washed again, and the coverslips were mounted face-down on microscope slides using Vectashield (Vector) mounting medium. Slides were observed under an Olympus fluorescent microscope, images acquired using a Magnafire digital camera, and processed using Adobe Photoshop.

[2] = tested on: B16-F10 melanoma cells; test: 48 hr cytotoxicity, B16-F10 melanoma; assay type: cell-based, murine; conditions: 10% FBS, individual values
Description: (§1) B16-F10 (ATCC; CRL-6475), DU 145 (ATCC; HTB-81), HEK293 (ATCC; CRL-1573), HT-29 (ATCC; HTB-38), LoVo (ATCC; CCL-229), MDA-MB-231 (ATCC; HTB-26), MIA PaCa-2 (ATCC; CRL-1420), NCI-H292 (ATCC; CRL-1848), OVCAR-3 (ATCC, HTB-161), PANC-1 (ATCC; CRL-1469), PC-3 (ATCC; CRL-1435), RPMI 8226 (ATCC; CCL-155) and U266 (ATCC; TIB-196) are maintained in appropriate culture media. The cells are cultured in an incubator at 37° C. in 5% CO2 and 95% humidified air.
(§2) For cell growth inhibition assays, B16-F10, DU 145, HEK293, HT-29, LoVo, MDA-MB-231, MIA PaCa-2, NCI-H292, OVCAR-3, PANC-1, PC-3, RPMI 8226 and U266 cells are seeded at 1.25×10^3, 5×10^3, 1.5×10^4, 5×10^3, 5×10^3, 1×10^4, 2×10^3, 4×10^3, 1×10^4, 7.5×10^3, 5×10^3, 2×10^4, 2.5×10^4 cells/well respectively in 90 μl complete media into Corning 3904 black-walled, clear-bottom tissue culture plates. 20 mM stock solutions of compounds of Formula II, IIA, and IIB are prepared in 100% DMSO, aliquoted and stored at −80° C. Compounds of Formula II, IIA, and IIB are serially diluted and added in triplicate to the test wells resulting in final concentrations ranging from of 20 μM to 0.2 pM. The plates are returned to the incubator for 48 hours. The final concentration of DMSO is 0.25% in all samples.
(§3) Following 48 hours of drug exposure, 10 μl of 0.2 mg/ml resazurin (obtained from Sigma-Aldrich Chemical Co.) in Mg^2+, Ca^2+ free phosphate buffered saline is added to each well and the plates are returned to the incubator for 3-6 hours. Since living cells metabolize Resazurin, the fluorescence of the reduction product of Resazurin is measured using a Fusion microplate fluorometer (Packard Bioscience) with λex=535 nm and λem=590 nm filters. Resazurin dye in medium without cells was used to determine the background, which is subtracted from the data for all experimental wells.

[3] = 48 hr cytotoxicity, B16-F10 melanoma; assay type: cell-based, murine; conditions: mouse, B16-F10 melanoma cells, 10% FBS, individual values
Description: as §1, §2, §3

[4] = tested on: IRAK1; assay type: cell-based; conditions: LPS-stimulated RAW264.7; 1, 5, 10 and 20 μM
Description: (§4) Cells were treated with 1, 5, 10 and 20 μM of NPI-1387 for 1 hour and then stimulated with 10 ng/ml LPS for 10 or 30 min. To determine the phosphorylation of IRAK1, whole cell extracts were prepared in RIPA buffer [0.9% NaCl, 50 mM Tris-HCl (pH7.4), 1% Triton X-100, 1 mM EDTA, 0.25% Na-deoxycholic acid, 0.1% SDS, 1 mM Na3VO4, 1 mM NaF and protease inhibitors]. […] Following electro-transfer, the membranes were blocked in Blotto (5%, w/v) non-fat milk in 1×TBST [20 mM Tris, 0.8% (w/v) NaCl, pH 7.6, 0.1% (v/v) Tween 20]. Membranes were then incubated with primary antibodies against IRAK1 (Santa Cruz Biotechnology), total IκBα (Cell Signaling Technology), phospho-IκBα (Cell Signaling Technology) and Tubulin (Lab Vision) in Blotto for 2 hours. The membranes were washed in TBST and (where necessary) incubated with the HRP-conjugated secondary antibody in Blotto for 1 hour before washing extensively with TBST. HRP activity was visualized by utilizing either SuperSignal West Pico or Dura chemiluminescent detection systems (Pierce Biotechnology). […] The protein samples were separated by 10% NuPAGE MES precast gels (Invitrogen) and the extent of GST-IκBα phosphorylation was evaluated by western blotting using the antibody against phospho-IκBα (Cell Signaling Technology).

[5] = target: IKKα (Mus musculus, UniProt Q60680); assay type: cell-based; conditions: LPS-stimulated RAW264.7; 1, 5, 10 and 20 μM
Sequence of IKKα (Q60680 whole entry): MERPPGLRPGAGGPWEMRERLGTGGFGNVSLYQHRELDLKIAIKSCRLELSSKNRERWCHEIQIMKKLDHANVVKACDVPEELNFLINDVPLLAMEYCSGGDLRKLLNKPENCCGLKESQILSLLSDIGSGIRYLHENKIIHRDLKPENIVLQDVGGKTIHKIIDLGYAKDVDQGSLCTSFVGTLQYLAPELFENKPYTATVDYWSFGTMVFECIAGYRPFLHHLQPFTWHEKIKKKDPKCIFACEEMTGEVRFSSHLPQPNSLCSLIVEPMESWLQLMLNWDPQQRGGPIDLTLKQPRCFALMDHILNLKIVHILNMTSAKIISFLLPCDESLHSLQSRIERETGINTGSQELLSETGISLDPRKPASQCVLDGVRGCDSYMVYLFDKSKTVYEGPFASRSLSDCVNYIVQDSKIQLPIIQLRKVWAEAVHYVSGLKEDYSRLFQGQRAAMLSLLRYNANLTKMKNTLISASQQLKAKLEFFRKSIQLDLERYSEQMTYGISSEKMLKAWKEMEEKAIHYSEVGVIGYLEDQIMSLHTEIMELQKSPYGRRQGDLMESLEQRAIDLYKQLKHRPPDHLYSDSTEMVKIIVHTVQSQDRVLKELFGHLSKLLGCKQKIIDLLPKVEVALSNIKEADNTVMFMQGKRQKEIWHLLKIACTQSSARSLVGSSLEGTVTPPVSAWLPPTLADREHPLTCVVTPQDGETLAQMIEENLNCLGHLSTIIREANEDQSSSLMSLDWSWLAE
Description: as §4

C=CC(=O)C1(C)CCCC2(C)C3=CCC(C)(C=C)C[C@@H]3CC[C@H]12 (stereo in doubt) [NPI-1387, 1-[(1S,4aS,7R)-1,4a,7-Trimethyl-7-vinyl-1,2,3,4,4a,6,7,8,8a,9,10,10a-dodecahydro-1-phenanthrenyl]-2-propen-1-one]
nuclear translocation of NF-κB (p65) / activated IRAK1 [1]: inhibits the NF-κB p65 subunit nuclear translocation in a dose-dependent manner
% cytotox [2]: 92%
IC50 [2]: 7.5 µM
IC50 ([2]; Mus musculus, B16-F10, 48 h): 6.2 µM
cytotoxicity at 48 h [3]: 94%
phosphorylation of IRAK1 (and its downstream target IκBα) [4]: inhibits the phosphorylation of IRAK1
kinase activity of IKKα [5]: reduces kinase activity of IKKα in a dose-dependent manner
